Experiment [1] relates to CD3/CD28 induced IL-2 in human T-Blasts. As to the kind of experiment: T-Blasts CD3/CD28 induced IL-2 assay. Conditions: read-out: CD3/CD28-stimulated IL2 in T-blasts EC50. The experiment is classed as cell-based. Put shortly: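 PHA-generated human T-blasts, 2×10^5 per well, preincubated 30 min with 8-point 1/3 compound dilutions in duplicate, then stimulated with anti-CD3+anti-CD28 (5 μg/mL final) for 24 h at 37° C. Supernatant IL-2 measured; MTT toxicity run on remaining cells.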

A further experiment concerns the target T1, PKCθ (Homo sapiens, UniProt Q04759).
T1 construct: His6; purchased Millipore; host or cells: baculovirus in Sf21 cells
As to the kind of experiment: In vitro enzyme assay (time-resolved fluorescence kinase assay), PKCθ, 100 μM ATP. In kind it is biochemical. Put shortly:
(§1)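 Read-out was time-resolved fluorescence, corrected for a minus-enzyme blank and converted to percent activity relative to enzyme without drug. They were stopped with EDTA.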

The target in a further experiment is T2, PKCα (Homo sapiens, UniProt P17252).
T2 construct: His6; purchased Millipore; host or cells: baculovirus in Sf21 cells
As to the kind of experiment: In vitro enzyme assay (time-resolved fluorescence kinase assay), PKCα, 100 μM ATP. In kind it is biochemical. The conditions noted are these: 100 μM ATP; read-out: PKCα enzyme IC50. Put shortly: as §1

Molecules are shown by their SMILES. pEC50, pIC50: −log10 of the molar value.

This is an account of results in patent US9115151B2, “Substituted 2,10-dihydro-9-oxa-1,2,4A-triazaphenanthren-3-ones and uses thereof” (AbbVie Inc., priority 2012, dated 2015).

T1 sequence (Q04759 whole entry): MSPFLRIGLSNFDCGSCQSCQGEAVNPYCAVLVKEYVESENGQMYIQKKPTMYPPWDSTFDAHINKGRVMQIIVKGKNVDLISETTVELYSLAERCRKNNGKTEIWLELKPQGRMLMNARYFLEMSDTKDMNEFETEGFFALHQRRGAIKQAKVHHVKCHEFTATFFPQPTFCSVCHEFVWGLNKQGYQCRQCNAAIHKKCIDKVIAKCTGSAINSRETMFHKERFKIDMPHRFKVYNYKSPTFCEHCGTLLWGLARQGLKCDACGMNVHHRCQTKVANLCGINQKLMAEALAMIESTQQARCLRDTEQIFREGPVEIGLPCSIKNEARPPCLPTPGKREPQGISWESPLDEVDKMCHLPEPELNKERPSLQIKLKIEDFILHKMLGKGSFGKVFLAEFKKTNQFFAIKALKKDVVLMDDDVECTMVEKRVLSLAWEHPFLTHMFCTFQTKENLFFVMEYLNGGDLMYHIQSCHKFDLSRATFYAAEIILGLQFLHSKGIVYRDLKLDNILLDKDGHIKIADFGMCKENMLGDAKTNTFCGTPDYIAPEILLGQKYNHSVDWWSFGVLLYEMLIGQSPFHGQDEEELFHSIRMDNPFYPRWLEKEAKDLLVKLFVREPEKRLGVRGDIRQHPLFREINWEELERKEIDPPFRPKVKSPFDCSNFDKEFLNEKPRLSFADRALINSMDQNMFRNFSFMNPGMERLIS

On to `CC1C(=O)NN=C2COc3cc4c(cc3N21)N(C1(C)CNC1)CC4` (stereo not drawn) [Example 158, 1-Methyl-10-(3-methyl-azetidin-3-yl)-3,5,9,10-tetrahydro-8H-6-oxa-3,4,10,11b-tetraaza-cyclopenta[b]phenanthren-2-one 2,2,2-trifluoroacetate], for which the pEC50 in experiment [1] was greater than 6.60. In addition, the pIC50 at PKCθ was greater than 6.60; at PKCα, 5.00 to 6.00.
`C[C@@H]1C(=O)NN=C2COc3cc(-c4c(N5CCNCC5)ccc(Cl)c4Cl)ccc3N21` [Example 132]: in experiment [1], the pEC50 was 6.00 to 6.60. The pIC50 is greater than 6.60 at PKCθ and 5.00 to 6.00 on PKCα.
In the same order, the values of `CC1C(=O)NN=C2COc3cc(F)c(OC4(C)CNC4)cc3N21` (stereo not drawn) [Example 80, 7-Fluoro-4-methyl-6-(3-methyl-azetidin-3-yloxy)-2,10-dihydro-9-oxa-1,2,4a-triaza-phenanthren-3-one trifluoroacetic acid] are greater than 6.60, greater than 6.60 and 5.00 to 6.00.
The corresponding values for `Cc1cc2c(cc1OC1(C)CNC1)N1C(=NNC(=O)C1C)CO2` (stereo not drawn) [Example 83, 4,7-Dimethyl-6-(3-methyl-azetidin-3-yloxy)-2,10-dihydro-9-oxa-1,2,4a-triaza-phenanthren-3-one trifluoroacetic acid] are greater than 6.60, greater than 6.60 and 5.00 to 6.00.
As for `CC1C(=O)NN=C2COc3cc4ccn(C5CNC5)c4cc3N21` (stereo not drawn) [Example 103, 10-(Azetidin-3-yl)-1-methyl-5,10-dihydro-1H-[1,2,4]triazino[4′,3′:4,5][1,4]oxazino[2,3-f]indol-2(3H)-one trifluoroacetic acid], the pEC50 in experiment [1] is 6.00 to 6.60. The negative logarithm of the IC50 (pIC50) at PKCθ was greater than 6.60; on PKCα it was 5.00 to 6.00.
The corresponding values for `C[C@@H]1C(=O)NN=C2COc3cc4c(cc3N21)N([C@@H]1CCNC1)CC4` [Example 153, (R)-1-Methyl-10-(R)-pyrrolidin-3-yl-3,5,9,10-tetrahydro-8H-6-oxa-3,4,10,11b-tetraaza-cyclopenta[b]phenanthren-2-one hydrochloric acid] are 5.00 to 6.00, 6.00 to 6.60 and 5.00 to 6.00.
In the same order, the values of `CC1C(=O)NN=C2COc3cc(-c4ccccc4)c(OC4CNC4)cc3N21` (stereo not drawn) [Example 66] are greater than 6.60, greater than 6.60 and 5.00 to 6.00.
For the compound `C[C@@H]1C(=O)NN=C2COc3cc(-c4ccccc4F)c(N(C)C4(C)CN(C(=O)CN(C)C)C4)cc3N21` [Example 187], the pEC50 in experiment [1] is 6.00 to 6.60. For the same compound, the values for the pIC50 against PKCθ and on PKCα were greater than 6.60 and 5.00 to 6.00, respectively.
The corresponding values for `CC(C)c1cc2c(cc1OC1CNC1)N1C(=NNC(=O)C1C)CO2` (stereo not drawn) [Example 68, 6-(Azetidin-3-yloxy)-7-isopropyl-4-methyl-2,10-dihydro-9-oxa-1,2,4a-triaza-phenanthren-3-one trifluoroacetic acid] are 6.00 to 6.60, 6.00 to 6.60 and 5.00 to 6.00.
In the same order, the values of `C[C@@H]1C(=O)NN=C2COc3cc(-c4ccc(OC(F)(F)F)cc4)c(NC4CNC4)cc3N21` [Example 11] are greater than 6.60, 6.00 to 6.60 and 5.00 to 6.00.
On to `CC1C(=O)NN=C2COc3cc(-c4ccccc4C(F)(F)F)c(NC4CNC4)cc3N21` (racemic) [Example 28], for which the pEC50 in experiment [1] is greater than 6.60. In addition, the pIC50 against PKCθ was greater than 6.60; at PKCα, 5.00 to 6.00.
For `CC1C(=O)NN=C2COc3cc(-c4ccc(OC(F)(F)F)cc4)c(NC4CNC4)cc3N21` (racemic) [Example 21], in experiment [1], the pEC50 is greater than 6.60. In addition, the pIC50 against PKCθ was 6.00 to 6.60; on PKCα, 5.00 to 6.00.
In the same order, the values of `C[C@@H]1C(=O)NN=C2COc3ccc([C@@H]4CCN[C@H](Cc5ccccc5)C4)cc3N21` (single isomer, unassigned) [Example 109-2, trifluoroacetic acid] are greater than 6.60, greater than 6.60 and 5.00 to 6.00.
The corresponding values for `CC1C(=O)NN=C2COc3cc(-c4ccco4)c(N(C)C4(C)CN(C)C4)cc3N21` (stereo not drawn) [Example 171] are greater than 6.60, greater than 6.60 and 5.00 to 6.00.
The corresponding values for `CC1C(=O)NN=C2COc3cc(-c4ccccc4F)c(N4CC5CCC4CN5C)cc3N21` (stereo not drawn) [Example 236] are 5.00 to 6.00, greater than 6.60 and 5.00 to 6.00.
For the compound `C[C@H]1C(=O)NN=C2COc3cc(-c4ccccc4F)c(N(C)[C@@]4(C)CCN(C)C4)cc3N21` (single isomer, unassigned) [Example 198-1], the pEC50 in experiment [1] is 5.00 to 6.00. Moreover, the pIC50 is greater than 6.60 on PKCθ and 5.00 to 6.00 at PKCα.
`CC(C)c1cc2c(cc1C1CCNCC1)N1C(=NNC(=O)C1C)CO2` (stereo not drawn) [Example 76, 7-Isopropyl-4-methyl-6-piperidin-4-yl-2,10-dihydro-9-oxa-1,2,4a-triaza-phenanthren-3-one trifluoroacetic acid]: the pEC50 in experiment [1] was 6.00 to 6.60. Further, the pIC50 against PKCθ is 6.00 to 6.60; on PKCα, 5.00 to 6.00.
For the compound `CC1C(=O)NN=C2COc3cc(-c4ccccc4)c(NC4(C)CNC4)cc3N21` (stereo not drawn) [Example 79, 4-Methyl-6-(3-methyl-azetidin-3-ylamino)-7-phenyl-2,10-dihydro-9-oxa-1,2,4a-triaza-phenanthren-3-one trifluoroacetic acid], in experiment [1], the pEC50 was 5.00 to 6.00. For the same compound, the negative-log IC50 (pIC50) against PKCθ was 6.00 to 6.60; at PKCα it was 5.00 to 6.00.

One may read the pIC50 as the negative decadic logarithm of the IC50, by convention in mol/L.
